Read-outs that look alike come from different tables or passages of the source.
How the values were obtained:
[1] = tested on: NCI/ADR-RES cells; test: SRB cytotoxicity assay with median-effect / combination index analysis; type: cell-based, human; details: for IC50: Homo sapiens
Description: The multidrug resistant cell line, NCI/ADR-RES, was obtained from the DTP Human Tumor Cell Line Screen (Developmental Therapeutics Program, NCI). Both cell lines were maintained in Dulbecco's modified Eagle's medium supplemented with 10% fetal bovine serum and the antibiotics penicillin and streptomycin. […] Stocks of M4N and paclitaxel (Sigma-Aldrich, St. Louis, Mo.) were prepared in dimethyl sulfoxide (DMSO) and added to the cell culture medium so that the final concentration of DMSO was one percent. Aqueous stocks of Dox (Sigma-Aldrich) were prepared and filter sterilized before dilution into growth medium.
NCI/ADR-RES cells were seeded at a density of 2×10^4 cells per well in 24 well plates and 24 h later the growth medium was supplemented with M4N, Dox, paclitaxel or combinations of M4N with Dox or M4N with paclitaxel. MAN was used at concentrations between 1.5 and 48 μM. For the combination of MAN and Dox a constant molar ratio of 2.4:1 (M4N:Dox) was used and for M4N and paclitaxel the ratio was 20:1 (M4N:paclitaxel). Three days after drug addition cytoxicity was assessed with the SRB assay (14) with 540 and 690 nm (reference) absorbance measured with a Power Wave 200 microplate reader (Bio-Tek Instruments, Winooski, Vt.).
The combination index (CD isobologram method of Chou and Talalay (16, 17, 18, 19) which is based on the median effect principle, was used to calculate synergism or antagonism for the combined drug effects. Dose-effect curves for each drug, singly and in combination, in serially-diluted concentrations were plotted using the median-effect equation and plot (18, 20) and the CI equation and plot (19). CI values at different effect and dose levels and isobolograms were generated automatically using the computer software CompuSyn (20). With this method, additive, synergistic or antagonistic effects are indicated by CI values of 1, <1, and >1, respectively. Comparison of the ratio of doses required to reach a given effect level for each single drug and the drugs in combination was used to determine the dose-reduction index (DRI).

[2] = tested on: MCF-7; details: MCF-7, drug sensitive human breast cancer cell line; read-out: reported IC50; cited from earlier work
[3] = tested on: MDR-1 gene; details: cited from earlier work
[4] = tested on: Hep3B, HT29, K562, LNCaP, and MCF7; test: MTT cell viability of human tumor cell lines; type: cell-based; details: 72 h, every cell line tested (Hep3B, HT29, K562, LNCaP, MCF7), 3 days
Description: Human tumor cell lines were obtained from ATCC (Mannassas, Va.). The human hepatocellular carcinoma cell line, Hep3B, was maintained in Eagle's MEM supplemented with 10% FBS; the human breast cancer cell line, MCF7, was grown in DMEM containing 10% FBS; the human colorectal carcinoma cell line, HT29, was cultured in McCoy's 5a medium with 10% FBS; the human prostate carcinoma cell line, LNCaP, was maintained in RPMI 1640 with 10% FBS and human erythroleukemia cell line, K562, was propagated in Iscove's modified Dulbecco's medium (IMDM) containing 10% FBS. All of the cultures contained the antibiotics penicillin and streptomycin. The C3 cell line was generated by transfection of the EJras-transformed C57B16 (B6) mouse embryo cells with fall length HPV16. C3 cells were grown and maintained in IMDM supplemented with 5% FBS plus penicillin and streptomycin.
For cell culture experiments, Maltose-M3N was dissolved in water to a concentration of 10 mM and then sterilized by filtration. Cells were seeded at approximately 2×10^3 cells per cm^2 in complete media. Twenty-four hours after seeding, the growth media was removed and replaced with media containing the desired concentrations of Maltose-M3N.
Twenty thousand cells were seeded into each well of 24-well plates. […] The solubilized dye was transferred to 96-well plates and read at the wavelength of 540 nm using an ELISA reader.

[5] = tested on: Hep3B cells; test: DAPI staining of nuclei for apoptotic bodies; type: cell-based, human; details: 60 μM, 72 hr
Description: FIG. 9. (A) Effect of Maltose-M3N on the proliferation of human tumor cell lines. HT29, LNCaP, Hep3B, K562, and MCF7 were treated with different concentrations of Maltose-M3N for 72 hours. Percent cell viability was measured by MTT assay and expressed as mean±SD of triplicate data points. (B) Untreated Hep3B cells or treated with 60 μM Maltose-M3N for 72 hr were stained with DAPI. Arrows indicate apoptotic bodies.
The growth inhibitory effect of Maltose-M3N was evaluated in five human cancer cell lines, including Hep3B, HT29, K562, LNCaP, and MCF7.

[6] = tested on: C3 tumors; test: intratumoral treatment of C3 cell-induced tumors in mice; type: in vivo; details: daily intratumoral injections for 4 days
Description: Four C57b1/6 mice were inoculated with 5×10^5 C3 cells subcutaneously between the shoulders. Tumors were allowed to develop for approximately 20 days. The mice then received daily intratumoral injections of 0.1 ml of 0.15 M NaCl, 10 mg, 20 mg or 40 mg of Maltose-M3N dissolved in 0.15 M NaCl. After 4 days of treatment, the mice were euthanized and the tumors were excised, immediately fixed and then stored in 4% formaldehyde in PBS. Tissue samples were then sent to Paragon Bioservices (Baltimore, Md.) for histology and immunohistochemistry using antibodies against Cdc2 and survivin.

[7] = tested on: NCI/ADR-RES multidrug resistant breast cancer xenografts; test: combination therapy against NCI/ADR-RES xenografts in nude mice; details: two weeks
Description: Nude mice bearing NCI/ADR-RES multidrug resistant breast cancer xenografts were used as a model for combination therapy to further examine synergy between M4N and paclitaxel.
T-cell deficient female nude (nu/nu) mice, 5-6 weeks of age, were purchased from Charles River Laboratories (Wilmington, Mass.) and were housed in a pathogen-free room. All experiments involving the mice were carried out in accordance with the Johns Hopkins University Animal Care and Use Committee guideline. The mice were implanted subcutaneously in both flanks with 1×10^6 NCI/ADR-RES cells suspended in Hank's balanced salt solution (HBSS). […] For intraperitoneal (i.p.) administration, M4N, maltose-M3N and paclitaxel were dissolved in a recently developed reduced cremophor solution containing 20% (v) dehydrated ethanol, 20% (v) Cremophor EL, PEG 300, <11% (v) Tween 80 (22). Daily injections of 0.05 ml were performed for each drug and drug combination.
Tumors were measured in two perpendicular dimensions once every seven days, and the tumor volumes were calculated according to the following formula: […]
where a is the width of the tumor (smaller diameter) and b is the length (larger diameter) (23). The mean tumor volume and standard error were calculated for each treatment group. Relative mean tumor volumes, (V/V0), where V is the mean tumor volume at a particular time and V0 is the mean tumor volume at day 0 (23), were determined and used to assess tumor growth inhibition (T/C value) using the following equation:
T/C(%)=Relative Mean Tumor Volume of treated/Relative Mean Volume of control×100.
The NCI standard for the minimal level for antitumor activity (T/C≦42%) was adopted (25). At the termination of the experiment the tumors were excised and fixed in formaldehyde. Tissue samples were then sent to Paragon Bioservices for histology and immunohistochemistry using antibodies against human P-glycoprotein (Pgp).
Two dosage regimens of M4N and paclitaxel, both with a constant molar ratio of 20:1 (M4N:paclitaxel), were employed as determined by in vitro testing to be synergistic as shown in Table 1. The 8 and 16 μmol m^2 doses of pactitaxel were submaximal based on values from other studies (22) and the M4N doses of 160 and 320 μmol/m^2 were arrived at by decreasing the maximum tolerated dose used in our previous study with MCF-7 breast cancer xenografts (5). An additional NDGA derivative was also tested. Maltose-M3N was developed as a water soluble alternative to M4N, however for consistency it was dissolved in the same reduced cremophor solvent system as M4N and paclitaxel for this study.

[8] = solubility in water; type: physicochemical
[9] = 72 h, NCI/ADR-RES, three days, combinations at molar ratio 2.4:1 (M4N:Dox) or 20:1 (M4N:paclitaxel), given as M4N + second drug, read-out: Dm, median effect dose (concentration that inhibits cell growth by 50%)
[10] = single agent, NCI/ADR-RES, read-out: IC50
[11] = M4N/Dox combination 2.4:1, NCI/ADR-RES
[12] = M4N/Dox combination, NCI/ADR-RES
[13] = higher regimen: M4N or Mal-M3N 320, Px 16 μmoles/m^2, i.p. daily
[14] = M4N/paclitaxel combination 20:1, NCI/ADR-RES
[15] = M4N/paclitaxel combination, NCI/ADR-RES
[16] = lower regimen: M4N 160, Px 8 μmoles/m^2, i.p. daily

COc1cccc2c1C(=O)c1c(O)c3c(c(O)c1C2=O)C[C@@](O)(C(=O)CO)C[C@@H]3O[C@H]1C[C@H](N)[C@H](O)[C@H](C)O1 [Dox, doxorubicin]
concentration necessary to inhibit the growth of 75% of cells (ED75) ([1]; Dox alone, NCI/ADR-RES): 30.5 µM
concentration necessary to inhibit the growth of 75% of cells (ED75) ([1]; Dox with concurrent 11.3 μM M4N, NCI/ADR-RES): 4.7 µM
IC50 [1, 9]: 3.22 µM
IC50 [1, 10]: 3.22 µM
DRI value at ED75 [1, 11]: 6.47
DRI value at ED90 [1, 11]: 30.50
DRI value at ED95 [1, 11]: 87.56
decrease of ED75 by concurrent M4N (DRI) [1, 12]: 6.47 fold
reduction of ED95 by concurrent M4N (DRI) [1, 12]: 87.6 fold
IC50 [2]: 0.13 µM

COc1cc2c(cc1O)CCN[C@]21CS[C@@H]2c3c(OC(C)=O)c(C)c4c(c3[C@H](COC1=O)N1[C@@H]2[C@H]2c3c(cc(C)c(OC)c3O)C[C@@H]([C@@H]1O)N2C)OCO4 [ET-743]
MDR-1 gene activation [3]: able to inhibit MDR-1 gene activation

COc1ccc(C[C@H](C)[C@H](C)Cc2ccc(OC)c(OC3OC(CO)C(OC4OC(CO)C(O)C(O)C4O)C(O)C3O)c2)cc1OC (stereo partly shown) [Maltose-M3N]
IC50 [4]: 20 to 40 µM
mode of cell death (DAPI staining) [5]: cell death occurred via apoptosis
Cdc2 protein expression in tumors [6]: reduced expression levels
apoptosis and necrosis by H&E staining [6]: elevated levels of apoptosis and necrosis
survivin protein expression in tumors [6]: reduced expression levels
Relative Mean Tumor Volume [7, 13]: 1.25
T/C % [7, 13]: 47.7%
solubility in aqueous solution [8]: water soluble

CC(=O)O[C@H]1C(=O)[C@@]2(C)[C@H]([C@H](OC(=O)c3ccccc3)[C@]3(O)C[C@H](OC(=O)[C@H](O)[C@@H](NC(=O)c4ccccc4)c4ccccc4)C(C)=C1C3(C)C)[C@]1(OC(C)=O)CO[C@@H]1C[C@@H]2O [paclitaxel]
IC50 [1, 9]: 3.26 µM
IC50 [1, 10]: 3.26 µM
DRI value at ED75 [1, 14]: 54.32
DRI value at ED90 [1, 14]: 150.31
DRI value at ED95 [1, 14]: 300.34
decrease of ED50 by concurrent M4N (DRI) [1, 15]: 19.63 fold
decrease of ED95 by concurrent M4N (DRI) [1, 15]: 300.3 fold
Deaths [7, 13]: 0/7
Relative Mean Tumor Volume [7, 13]: 1.59
T/C % [7, 13]: 60.7%
Deaths [7, 16]: 0/7
Mean Body Weight Change [7, 16]: +0.3 g/mouse
Relative Mean Tumor Volume [7, 16]: 0.90
T/C % [7, 16]: 34.4%
IC50 [2]: 0.0064 µM
